Laboratory results from patent US20250263436A1, “BROAD-SPECTRUM ANTIVIRAL DRUG FOR ENTEROVIRUS, AND APPLICATION” (WUHAN INSTITUTE OF VIROLOGY, CHINESE ACADEMY OF SCIENCES, priority 2020, published 2025).
“And” between values parts separate entries of the source, which are not always exact repeats. Identical values can stand only once. Where no end group is shown, it is not given here.

System: EV71
Assay: Inhibitory activity on EV71 in RD cells by CCK8 method
Format: cell-based, enterovirus 71 (EV71)
Conditions: for IC50: EV71 in RD cells, CCK8 method; for Inhibition rate on EV71 virus (%): RD cells, 0.1 MOI, 24 h, CCK8
Protocol: (1) RD cells were plated in a 96-well plate at 100 μL per well.
(2) When the cells grew to a confluence of 70%-80%, the DMEM medium containing 10% serum was replaced with a DMEM medium containing 2% serum.
(§1) (3) The polypeptide drug was gradiently diluted with the DMEM containing 2% FBS into concentrations of 0.15625 μM, 0.3125 μM, 0.625 μM, 1.25 μM, 2.5 μM, and 5 μM, and then added to a new 96-well plate at 100 μL per well, with 3 replicate wells for each concentration.
(4) The diluted virus was added to the above wells at 100 μL per well. The wells with no drug and no virus added and the wells with no drug but virus added were set as controls respectively, with a final concentration of virus of 0.1 MOI.
(4) The mixture was transferred into the 96-well plate plated with cells for another 24 h of culture, and the inhibitory activity of the polypeptide on the virus was determined by a CCK8 kit.
(5) The inhibition rates of different concentrations of the polypeptides on virus infection were calculated according to a calculation formula of: inhibition rate of polypeptide=(well with drug-well with virus)×100%/(well with no drug-well with virus).
as §1, with “concentration. (4) The diluted virus was added to the above wells at 100 μL per well. The wells with no drug and no virus added and the wells with no drug but virus added were set as controls respectively, with a final concentration of virus of 0.1 MOI.” for “concentration.”

Compound | IC50 | Inhibition rate on EV71 virus (%) (polypeptide 0.15625 μM) | Inhibition rate on EV71 virus (%) (polypeptide 0.3125 μM) | Inhibition rate on EV71 virus (%) (polypeptide 0.625 μM) | Inhibition rate on EV71 virus (%) (polypeptide 1.25 μM) | Inhibition rate on EV71 virus (%) (polypeptide 2.5 μM) | Inhibition rate on EV71 virus (%) (polypeptide 5 μM)
CC[C@H](C)[C@H](NC(=O)[C@H](C)NC(=O)[C@H](CO)NC(=O)[C@H](CCCNC(=N)N)NC(=O)CNC(=O)[C@H](CO)NC(=O)CNC(=O)[C@H](CCCNC(=N)N)NC(=O)[C@H](CCCNC(=N)N)NC(=O)[C@H](CCCNC(=N)N)NC(=O)[C@H](CCC(N)=O)NC(=O)[C@H](CCCNC(=N)N)NC(=O)[C@H](CCCNC(=N)N)NC(=O)[C@H](CCCCN)NC(=O)[C@H](CCCCN)NC(=O)[C@H](CCCNC(=N)N)NC(=O)CNC(=O)[C@@H](N)Cc1ccc(O)cc1)C(=O)NCC(=O)N[C@@H](CC(N)=O)C(=O)N[C@H](C(=O)N[C@H](C(=O)N[C@@H](CCC(=O)O)C(=O)N[C@@H](C)C(=O)N[C@@H](CC(C)C)C(=O)N[C@@H](Cc1ccccc1)C(=O)N[C@@H](CCC(N)=O)C(=O)O)[C@@H](C)CC)[C@@H](C)O [RSQ] | 2.6 µM | 1.471% and 6.588% and 2.826% | 11.34% and 21.2746% and 16.4228% | 18.633% and 25.8298% and 26.1918% | 40.5468% and 36.4575% and 35.2676% | 53.4848% and 40.7778% and 47.2122% | 58.6022% and 68.9642% and 62.4952%
CC[C@H](C)[C@H](NC(=O)[C@H](C)NC(=O)[C@H](CO)NC(=O)[C@H](CCCNC(=N)N)NC(=O)[C@H](CC(N)=O)NC(=O)[C@H](CC(N)=O)NC(=O)CNC(=O)[C@H](CO)NC(=O)CNC(=O)[C@H](CCCNC(=N)N)NC(=O)[C@H](CCCNC(=N)N)NC(=O)[C@H](CCCNC(=N)N)NC(=O)[C@H](CCC(N)=O)NC(=O)[C@H](CCCNC(=N)N)NC(=O)[C@H](CCCNC(=N)N)NC(=O)[C@H](CCCCN)NC(=O)[C@H](CCCCN)NC(=O)[C@H](CCCNC(=N)N)NC(=O)CNC(=O)[C@@H](N)Cc1ccc(O)cc1)C(=O)NCC(=O)N[C@@H](CC(N)=O)C(=O)N[C@H](C(=O)N[C@H](C(=O)N[C@@H](CCC(=O)O)C(=O)N[C@@H](C)C(=O)N[C@@H](CC(C)C)C(=O)N[C@@H](Cc1ccccc1)C(=O)N[C@@H](CCC(N)=O)C(=O)O)[C@@H](C)CC)[C@@H](C)O [NQ] | 1.9 µM | 4.278% and 5.368% and 8.337% | 11.5056% and 17.809% and 19.7228% | 16.7886% and 21.2091% and 24.9365% | 41.6538% and 40.8779% and 50.5607% | 51.933% and 60.1502% and 57.7744% | 60.6122% and 74.6708% and 75.3331%
YGRKKRRQRRRGSGIGNTIEALFQ [IQ] | 1.64 µM | 12.0331% and 13.5849% and 7.368% | 18.7401% and 22.4297% and 22.9573% | 26.0539% and 31.1744% and 34.8606% | 41.6022% and 42.578% and 47.4848% | 55.7952% and 50.9781% and 60.5503% | 73.2884% and 68.7332% and 83.2884%
YGRKKRRQRRRGSGNTIEALFQ [NTQ] | 2.28 µM | 2.654% and 4.744% and 5.743% | 14.83% and 10.2542% and 13.3898% | 20.84% and 30.339% and 24.339% | 39.17% and 47.6271% and 50.8202% | 45.42% and 51.9492% and 59.661% | 68.27% and 52.5424% and 61.6949%
YGRKKRRQRRRGSGIEALFQ [IEQ] | 2.48 µM | 11.724% and 8.44% and 7.627% | 18.8643% and 15.5487% and 10.6223% | 20.7161% and 25.7224% and 19.5166% | 33.6936% and 35.484% and 28.4286% | 45.6995% and 48.4526% and 57.4377% | 69.4739% and 61.3527% and 68.272%
YGRKKRRQRRRGSGTIEALFQ [TQ] | 1.76 µM | 3.314% and 5.356% and 7.23% |  | 33.3736% and 28.4011% and 30.3085% | 35.3209% and 40.3898% and 46.2471% | 59.3508% and 67.3559% and 55.2235% | 71.3029% and 65.3559% and 69.2301%
CC[C@H](C)[C@H](NC(=O)[C@H](C)NC(=O)[C@H](CO)NC(=O)[C@H](CCCNC(=N)N)NC(=O)[C@H](CC(N)=O)NC(=O)[C@H](CC(N)=O)NC(=O)[C@H](Cc1ccc(O)cc1)NC(=O)CNC(=O)[C@H](CO)NC(=O)CNC(=O)[C@H](CCCNC(=N)N)NC(=O)[C@H](CCCNC(=N)N)NC(=O)[C@H](CCCNC(=N)N)NC(=O)[C@H](CCC(N)=O)NC(=O)[C@H](CCCNC(=N)N)NC(=O)[C@H](CCCNC(=N)N)NC(=O)[C@H](CCCCN)NC(=O)[C@H](CCCCN)NC(=O)[C@H](CCCNC(=N)N)NC(=O)CNC(=O)[C@@H](N)Cc1ccc(O)cc1)C(=O)NCC(=O)N[C@@H](CC(N)=O)C(=O)N[C@H](C(=O)N[C@H](C(=O)N[C@@H](CCC(=O)O)C(=O)N[C@@H](C)C(=O)N[C@@H](CC(C)C)C(=O)N[C@@H](Cc1ccccc1)C(=O)N[C@@H](CCC(N)=O)C(=O)O)[C@@H](C)CC)[C@@H](C)O [YQ] | 1.96 µM | 5.8298% and 7.33% and 11.0089% | 15.102% and 10.7124% and 13.3881% | 23.6157% and 20.9642% and 29.1606% | 30.9365% and 28.1124% and 32.0401% | 62.0331% and 53.8159% and 52.1987% | 80.0886% and 71.2711% and 87.578%
